Measurements taken from patent US20240051968A1, “METHODS FOR TREATING SPINOCEREBELLAR ATAXIA TYPE 3” (PTC Therapeutics, Inc., priority 2021, published 2024).

Columns and labels:
[1] = tested on: Total ATXN3 (tATXN3) protein; experiment: Endogenous Total ATXN3 (tATXN3) Protein Assay (MSD immunoassay of cell lysates); format: cell-based; conditions: cells incubated with compound 48 h; 7-point concentration curve; MSD detection in cell lysate
Method in brief: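 Cells were plated at 10,000 per well on a 7-point, 3.16-fold compound dilution series in duplicate, with DMSO controls, and incubated 48 h at 37 °C. Lysates were run in an MSD sandwich immunoassay: mouse anti-ATXN3 capture, rabbit anti-ATXN3 secondary and SULFO-TAG anti-rabbit detection, read by electrochemiluminescence.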

ATXN3 pre-mRNA = experiment: RT-qPCR Assay to Quantify Exon 4 Skipping in ATXN3 pre-mRNA in Cells; format: cell-based; conditions: cells incubated with compound 24 h, 7-point concentration curve, GAPDH control
Method in brief: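 Cells (10,000/well) treated 24 h at 37° C with 7-point, 3.16-fold compound dilutions in duplicate against DMSO controls. Lysates analysed by one-step RT-qPCR (40 cycles) for ATXN3 exon 4 skipping; percent skipping per dose fitted to dose-response to interpolate IC50.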

SMILES | IC50 [1] [nM] | IC50 (ATXN3 pre-mRNA) [nM] | IC50 (average), total ATXN3 protein [1] | IC50, exon 4 skipping in ATXN3 pre-mRNA (ATXN3 pre-mRNA)
C[C@H](N)C(F)c1sc2c(NCc3nccs3)cc(Cl)nc2c1Br (stereo partly drawn) [Cpd 161, 2-[(2S)-2-amino-1-fluoropropyl]-3-bromo-5-chloro-N-[(1,3-thiazol-2-yl)methyl]thieno[3,2-b]pyridin-7-amine] | 500 to 1000 | ≤ 500 |  | 
Cc1c(NC[C@@H](C)N)sc2c(NCc3cccs3)cc(Cl)nc12 [Cpd 164, N^2-[(2R)-2-aminopropyl]-5-chloro-3-methyl-N^7-[(thiophen-2-yl)methyl]thieno[3,2-b]pyridine-2,7-diamine] | > 2000 | 2000 to 3000 |  | 
C[C@@H](O)[C@H](N)Cc1sc2c(NCc3ccco3)cc(Cl)nc2c1Br [Cpd 165, (2R,3R)-3-amino-4-(3-bromo-5-chloro-7-{[(furan-2-yl)methyl]amino}thieno[3,2-b]pyridin-2-yl)butan-2-ol] | ≤ 500 | ≤ 500 |  | 
C[S+]([O-])C[C@H](N)Cc1sc2c(NCc3ccco3)cc(Cl)nc2c1Cl (stereo partly drawn) [Cpd 167, [(2R)-2-amino-3-(3,5-dichloro-7-{[(furan-2-yl)methyl]amino}thieno[3,2-b]pyridin-2-yl)propyl](methyl)sulfaniumolate] | ≤ 500 | ≤ 500 |  | 

The remaining lines, values ahead:

IC50 [1] [nM] | IC50 (ATXN3 pre-mRNA) [nM] | IC50 (average), total ATXN3 protein [1] | IC50, exon 4 skipping in ATXN3 pre-mRNA (ATXN3 pre-mRNA) | SMILES
≤ 500 | ≤ 500 |  |  | C[C@H](N)C(F)c1sc2c(NCc3cccs3)cc(Cl)nc2c1Br (stereo partly drawn) [Cpd 158, 2-[(2S)-2-amino-1-fluoropropyl]-3-bromo-5-chloro-N-[(thiophen-2-yl)methyl]thieno[3,2-b]pyridin-7-amine]
 |  | inactive | inactive | C[C@H](N)C(O)c1sc2c(NCc3nccs3)cc(Cl)nc2c1Br (stereo partly drawn) [Cpd 159, (2S)-2-amino-1-(3-bromo-5-chloro-7-{[(1,3-thiazol-2-yl)methyl]amino}thieno[3,2-b]pyridin-2-yl)propan-1-ol]
1000 to 1500 | 500 to 1000 |  |  | Cc1c(NC[C@H](C)N)sc2c(NCc3cccs3)cc(Cl)nc12 [Cpd 163, N^2-[(2S)-2-aminopropyl]-5-chloro-3-methyl-N^7-[(thiophen-2-yl)methyl]thieno[3,2-b]pyridine-2,7-diamine]
≤ 500 | ≤ 500 |  |  | C#C[C@H](N)Cc1sc2c(NCc3ccco3)cc(Cl)nc2c1Cl [Cpd 166, 2-[(2R)-2-aminobut-3-yn-1-yl]-3,5-dichloro-N-[(furan-2-yl)methyl]thieno[3,2-b]pyridin-7-amine]
